Consider 6 compounds from patent US8076487B2, “Pyridone derivative and herbicide” (Kumiai Chemical Industry Co., Ltd., priority 2006, dated 2011).

What all share (assay type): in vivo
The test system of experiment [1] is Japanese bulrush (Scirpus juncoides Roxb.). Description: Test Example 1: herbicidal effect by soil application to paddy field. The settings on record: paddy field soil application; active ingredient 1,000 g per 1 hectare; wettable powder added dropwise to water surface the day after sowing; examined on the 21st day after application. A digest of the protocol:
(§1)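 Plants were sown in flooded (3 cm) paddy soil and evaluated for herbicidal effect 21 days after soil application in a greenhouse.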

The subject of experiment [2] is early watergrass (Echinochloa oryzicola Vasing). Described as above. Conditions: paddy field soil application; active ingredient 1,000 g per 1 hectare; wettable powder added dropwise to water surface the day after sowing; examined on the 21st day after application. Summed up: as §1
Experiment [3] deals with heartshape false pickerelweed (Monochoria vaginalis (Burm.f.) C.Presl). The experiment is described as above. The settings on record: paddy field soil application; active ingredient 1,000 g per 1 hectare; wettable powder added dropwise to water surface the day after sowing; examined on the 21st day after application. A digest of the protocol:
as §1

In experiment [4] the test system is barnyardgrass (Echinochloa crus-galli (L.) P. Beauv. var. crus-galli). The experiment is described as follows: Test Example 2: herbicidal effect by soil application to upland field. Conditions: soil surface spray, upland field soil, 1,000 g active ingredient per hectare, 21st day after application. A digest of the protocol: (§2)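 Greenhouse pot assay with field soil. Freshly sown seeds were covered with soil, then the surface was sprayed with diluted wettable powder: 1,000 g a.i./ha, 1,000 L/ha. Herbicidal effect scored at day 21 by standard criteria.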

Experiment [5] has as its system green foxtail (Setaria viridis (L.) P. Beauv.). The description is as above. Conditions: soil surface spray, upland field soil, 1,000 g active ingredient per hectare, 21st day after application. Summed up:
as §2

The subject of experiment [6] is slender amaranth (Amaranthus viridis L.). Described as above. Conditions: soil surface spray, upland field soil, 1,000 g active ingredient per hectare, 21st day after application. A digest of the protocol:
as §2

Experiment [7] relates to velvetleaf (Abutilon theophrasti medicus). Described as above. The settings on record: soil surface spray, upland field soil, 1,000 g active ingredient per hectare, 21st day after application. A digest of the protocol:
as §2

Experiment [8] relates to barnyardgrass (Echinochloa crus-galli (L.) P. Beauv. var. crus-galli). Description: Test Example 3: herbicidal effect by application to upland field (foliage treatment). The settings on record: 14th day after application; for herbicidal effect, Barnyardgrass: foliage treatment, 1,000 g active ingredient per 1 hectare, greenhouse. Summed up:
(§3)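 Plants were sown in field soil and raised in a greenhouse for two weeks before foliar spraying. A water-diluted wettable powder was applied at 1,000 g active ingredient per hectare in 1,000 liters per hectare. Herbicidal effect was scored on a standard scale 14 days later.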

Experiment [9] concerns green foxtail (Setaria viridis (L.) P. Beauv.). The description is as above. The settings on record: 14th day after application; for herbicidal effect, Green Foxtail: foliage treatment, 1,000 g active ingredient per 1 hectare, greenhouse. Summed up:
as §3

Experiment [10] deals with slender amaranth (Amaranthus viridis L.). The description is as above. Conditions: 14th day after application; for herbicidal effect, Slender Amaranth: foliage treatment, 1,000 g active ingredient per 1 hectare, greenhouse. Summed up: as §3
Experiment [11] concerns velvetleaf (Abutilon theophrasti medicus). The experiment is described as above. The settings on record: 14th day after application; for herbicidal effect, Velvetleaf: foliage treatment, 1,000 g active ingredient per 1 hectare, greenhouse. Summed up: as §3
Setting [12] is: foliage treatment, plants grown two weeks, 1,000 g active ingredient per hectare.

Molecules are shown by their SMILES.

As to `COCCOCCn1c(C(F)(F)F)ccc(C(=O)C2=C(O)C(C)(C)CCC2=O)c1=O` [II-31], in [1], the “herbicidal effect, Scirpus juncoides Roxb.” value was 5 (90% or more of herbicidal effect and crop phytotoxicity). The “herbicidal effect, Echinochloa oryzicola Vasing” value in [2] is 5 (90% or more of herbicidal effect and crop phytotoxicity). Besides, the “herbicidal effect, Monochoria vaginalis (Burm. f.) C. Presl” value (“herbicidal effect, Monochoria vaginalis” below) in experiment [3] was 5 (90% or more of herbicidal effect and crop phytotoxicity). Further, the “herbicidal effect (index), Barnyardgrass” value in experiment [4] is 5 (90% or more of herbicidal effect and crop phytotoxicity). Further, the “herbicidal effect (index), Green Foxtail” value in experiment [5] is 5 (90% or more of herbicidal effect and crop phytotoxicity). In addition, the “herbicidal effect (index), Slender Amaranth” value in experiment [6] was 5 (90% or more of herbicidal effect and crop phytotoxicity). The “herbicidal effect (index), Velvetleaf” value in [7] was 5 (90% or more of herbicidal effect and crop phytotoxicity). The “herbicidal effect, Barnyardgrass” value in experiment [8] is 5 (90% or more of herbicidal effect and crop phytotoxicity). Besides, the “herbicidal effect, Green Foxtail” value in experiment [9] was 5 (90% or more of herbicidal effect and crop phytotoxicity). Also, the “herbicidal effect, Slender Amaranth” value in [10] was 5 (90% or more of herbicidal effect and crop phytotoxicity). In experiment [11], the “herbicidal effect, Velvetleaf” value is 5 (90% or more of herbicidal effect and crop phytotoxicity).

Turning to `Cc1ccsc1-n1c(C(F)(F)F)ccc(C(=O)C2=C(O)CCCC2=O)c1=O` [I-149], in experiment [1], the “herbicidal effect, Scirpus juncoides Roxb.” value was 5 (90% or more of herbicidal effect and crop phytotoxicity). Moreover, the “herbicidal effect, Echinochloa oryzicola Vasing” value in [2] was 5 (90% or more of herbicidal effect and crop phytotoxicity). The “herbicidal effect, Monochoria vaginalis” value in experiment [3] is 5 (90% or more of herbicidal effect and crop phytotoxicity). Also, the “herbicidal effect (index), Barnyardgrass” value in experiment [4] was 5 (90% or more of herbicidal effect and crop phytotoxicity). For the same compound, the “herbicidal effect (index), Green Foxtail” value in [5] is 5 (90% or more of herbicidal effect and crop phytotoxicity). For the same compound, the “herbicidal effect (index), Slender Amaranth” value in experiment [6] was 5 (90% or more of herbicidal effect and crop phytotoxicity). Besides, the “herbicidal effect (index), Velvetleaf” value in experiment [7] is 5 (90% or more of herbicidal effect and crop phytotoxicity). The “herbicidal effect, Barnyardgrass” value in [8] is 5 (90% or more of herbicidal effect and crop phytotoxicity). Further, in experiment [9], the “herbicidal effect, Green Foxtail” value is 5 (90% or more of herbicidal effect and crop phytotoxicity). In addition, in experiment [10], the “herbicidal effect, Slender Amaranth” value was 5 (90% or more of herbicidal effect and crop phytotoxicity). The “herbicidal effect, Velvetleaf” value in experiment [11] is 5 (90% or more of herbicidal effect and crop phytotoxicity).

Consider `CCn1c(C(F)(F)F)ccc(C(=O)c2cnn(C)c2O)c1=O` [IV-2], for which the “herbicidal effect, Scirpus juncoides Roxb.” value in experiment [1] is 5 (90% or more of herbicidal effect and crop phytotoxicity). Also, the “herbicidal effect, Echinochloa oryzicola Vasing” value in experiment [2] is 5 (90% or more of herbicidal effect and crop phytotoxicity). Also, the “herbicidal effect, Monochoria vaginalis” value in experiment [3] is 5 (90% or more of herbicidal effect and crop phytotoxicity). In addition, in experiment [4], the “herbicidal effect (index), Barnyardgrass” value was 5 (90% or more of herbicidal effect and crop phytotoxicity). For the same compound, in [5], the “herbicidal effect (index), Green Foxtail” value was 5 (90% or more of herbicidal effect and crop phytotoxicity). Besides, the “herbicidal effect (index), Slender Amaranth” value in experiment [6] was 5 (90% or more of herbicidal effect and crop phytotoxicity). For the same compound, the “herbicidal effect (index), Velvetleaf” value in experiment [7] is 5 (90% or more of herbicidal effect and crop phytotoxicity). The “herbicidal effect, Barnyardgrass” value in experiment [8] was 5 (90% or more of herbicidal effect and crop phytotoxicity). Further, in experiment [9], the “herbicidal effect, Green Foxtail” value was 5 (90% or more of herbicidal effect and crop phytotoxicity). The “herbicidal effect, Slender Amaranth” value in experiment [10] was 5 (90% or more of herbicidal effect and crop phytotoxicity). In experiment [11], the “herbicidal effect, Velvetleaf” value is 5 (90% or more of herbicidal effect and crop phytotoxicity).

In the case of `O=C(C1=C(O)C2CCC(C2)C1=O)c1ccc(C(F)(F)F)n(C2CC2)c1=O` (stereo not drawn) [III-5], the “herbicidal effect, Scirpus juncoides Roxb.” value in [1] was 5 (90% or more of herbicidal effect and crop phytotoxicity). The “herbicidal effect, Echinochloa oryzicola Vasing” value in experiment [2] is 5 (90% or more of herbicidal effect and crop phytotoxicity). Moreover, in [3], the “herbicidal effect, Monochoria vaginalis” value was 5 (90% or more of herbicidal effect and crop phytotoxicity). In addition, the “herbicidal effect (index), Barnyardgrass” value in [4] is 5 (90% or more of herbicidal effect and crop phytotoxicity). The “herbicidal effect (index), Green Foxtail” value in experiment [5] was 5 (90% or more of herbicidal effect and crop phytotoxicity). Also, the “herbicidal effect (index), Slender Amaranth” value in [6] was 5 (90% or more of herbicidal effect and crop phytotoxicity). The “herbicidal effect (index), Velvetleaf” value in experiment [7] is 5 (90% or more of herbicidal effect and crop phytotoxicity). Besides, the “herbicidal effect, Barnyardgrass” value in experiment [8] is 5 (90% or more of herbicidal effect and crop phytotoxicity). The “herbicidal effect, Green Foxtail” value in experiment [9] is 5 (90% or more of herbicidal effect and crop phytotoxicity). Moreover, in [10], the “herbicidal effect, Slender Amaranth” value was 5 (90% or more of herbicidal effect and crop phytotoxicity). Moreover, in experiment [11], the “herbicidal effect, Velvetleaf” value is 5 (90% or more of herbicidal effect and crop phytotoxicity).

For the compound `CS(=O)(=O)c1ccc(-n2c(C(F)(F)F)ccc(C(=O)C3=C(O)CCCC3=O)c2=O)cc1` [I-83], in experiment [1], the “herbicidal effect, Scirpus juncoides Roxb.” value was 5 (90% or more of herbicidal effect and crop phytotoxicity). Further, the “herbicidal effect, Echinochloa oryzicola Vasing” value in experiment [2] is 5 (90% or more of herbicidal effect and crop phytotoxicity). The “herbicidal effect, Monochoria vaginalis” value in experiment [3] is 5 (90% or more of herbicidal effect and crop phytotoxicity). Moreover, the “herbicidal effect (index), Barnyardgrass” value was 5 (90% or more of herbicidal effect and crop phytotoxicity) in [4]; 5 (90% or more of herbicidal effect and crop phytotoxicity) in experiment [8] (setting [12]). For the same compound, the “herbicidal effect (index), Green Foxtail” value in experiment [5] was 5 (90% or more of herbicidal effect and crop phytotoxicity); in [9] (setting [12]), 5 (90% or more of herbicidal effect and crop phytotoxicity). In addition, the “herbicidal effect (index), Slender Amaranth” value is 5 (90% or more of herbicidal effect and crop phytotoxicity) in experiment [6]; 5 (90% or more of herbicidal effect and crop phytotoxicity) in [10] (setting [12]). In addition, the “herbicidal effect (index), Velvetleaf” value in experiment [7] is 5 (90% or more of herbicidal effect and crop phytotoxicity); in [11] (setting [12]), 5 (90% or more of herbicidal effect and crop phytotoxicity).

`C=CCn1c(C(F)(F)F)ccc(C(=O)C2=C(O)C(C)(C)C(=O)C(C)(C)C2=O)c1=O` [II-42]: the “herbicidal effect (index), Barnyardgrass” value in experiment [4] was 5 (90% or more of herbicidal effect and crop phytotoxicity). For the same compound, in [5], the “herbicidal effect (index), Green Foxtail” value was 3 (50 to less than 70% of herbicidal effect and crop phytotoxicity). Further, the “herbicidal effect (index), Slender Amaranth” value in experiment [6] was 5 (90% or more of herbicidal effect and crop phytotoxicity). Moreover, the “herbicidal effect (index), Velvetleaf” value in experiment [7] is 5 (90% or more of herbicidal effect and crop phytotoxicity). Also, the “herbicidal effect, Barnyardgrass” value in experiment [8] is 5 (90% or more of herbicidal effect and crop phytotoxicity). Further, the “herbicidal effect, Green Foxtail” value in [9] was 3 (50 to less than 70% of herbicidal effect and crop phytotoxicity). For the same compound, the “herbicidal effect, Slender Amaranth” value in [10] is 5 (90% or more of herbicidal effect and crop phytotoxicity). Further, the “herbicidal effect, Velvetleaf” value in experiment [11] was 5 (90% or more of herbicidal effect and crop phytotoxicity).
